Results published in patent publication US20100166603A1, “Powder Sterilization” (NOXILIZER, Inc., priority 2008, published 2010).
Several values for one entry are separate records, joined by “and”; a condition that tells them apart may be missing. Identical values can stand only once.

Tests used:
spore population = assay: NO2 gas exposure of powder under dry conditions (dry air diluent), spore inactivation; format: cell-based; settings: 10 mg/l NO2 gas, exposure 60 to 600 minutes
Description: FIG. 10 is a log-linear scale of population against exposure time for an experiment carried out with a dry air diluent.

[1] = tested on: spores in PVP/spore mixture powder; assay: NO2 gas sterilization of tumbled PVP/spore mixture powder in humid air, CFU recovery; format: cell-based; settings: for spore concentration after treatment: two vials present; for CFU per 100 mg: single plates
Method: A test to determine whether 100 mg of (PVP) and spore mixture powder could be sterilized using an NO2 gas sterilization process that incorporates a powder tumbling system. The NO2 used was a 10% NO2/90% N2 mixture.
A 2.2 cm diameter circular Tyvek® pieces was likewise cut and the Tyvek® piece was placed between the cap and the silicone septum ring forming a partially breathable cap on the vials, while maintaining the self-healing characteristic of the silicone septum.
The colony forming units (CFU's) recovered from each spore mixture were counted. Multiple plates and dilutions from a given biological indicator (BI) were averaged.
Vials were placed into a cylindrical mesh container. The container was in turn placed into a rock polisher that was configured to spin the container and the vials therein.
The second vial contained 100 mg of PVP/spore mixture with 10 3 mm glass beads (weight of the beads excluded). […]
After the runs, the samples were processed and CFUs were counted after approximately 48 hours of incubation at 35° C.-39° C.

[2] = Run 2 NX1080423A, 3.0 mm, 5 beads, 0.4% NO2, humid air to 25.13 in Hg, 40 min dwell
[3] = Run 2 NX1080423A, 3.0 mm, 10 beads, 0.4% NO2, humid air to 25.13 in Hg, 40 min dwell
[4] = Run 4 NX1080424B, 3.0 mm beads, Table 4 cycle, humid air per Table 5
[5] = Run 5 NX1080429A, 3.0 mm beads, Table 4 cycle, humid air per Table 5
[6] = Run 6 NX1080429B, 3.0 mm beads, Table 4 cycle, humid air per Table 5
[7] = Run 7 NX1080429C, 3.0 mm beads, Table 4 cycle, humid air per Table 5

Structure (SMILES): [O]N=O [NO2, nitrogen dioxide]
- lethality (spore population): acceptable lethality
- final spore concentration ([1]; 0.5 mm bead samples, three pulses, 21 in Hg of humidity added): 4.0×10^−1 spores/100 mg
- spore concentration after treatment ([1]; 0.5 mm bead samples, 17 in Hg of humidity added): 1.3×10^2 spores/100 mg
- spore concentration after treatment ([1]; 0.5 mm bead samples, 21 in Hg of humidity added): 1.8×10^3 spores/100 mg
- spore concentration after treatment ([1]; 0.5 mm bead samples, 23 in Hg of humidity added): 3.5×10^2 spores/100 mg
- Average per 100 mg ([1]; Run 1 NX1080422A, 0.5 mm beads, first vial, 0.4% NO2, humid air to 25.13 in Hg, 40 min dwell): 2.4 × 10^4 per 100 mg
- Average per 100 mg ([1]; Run 1 NX1080422A, 0.5 mm beads, second vial, 0.4% NO2, humid air to 25.13 in Hg, 40 min dwell): 6.2 × 10^4 per 100 mg
- Average per 100 mg [1, 2]: >2.0 × 10^5 per 100 mg
- CFU per 100 mg [1, 2]: >2.0 × 10^5 CFU per 100 mg
- Average per 100 mg [1, 3]: >2.0 × 10^5 per 100 mg
- CFU per 100 mg [1, 3]: >2.0 × 10^5 CFU per 100 mg
- Average per 100 mg ([1]; Run 3 NX1080424A, 0.5 mm beads, pre-humidity 10 min, 0.2%+0.2% NO2 with humid air, 10 min dwell, cycle repeats 2): 3.4 × 10^3 per 100 mg
- Average per 100 mg ([1]; Run 3 NX1080424A, 3.0 mm beads, pre-humidity 10 min, 0.2%+0.2% NO2 with humid air, 10 min dwell, cycle repeats 2): 8.6 × 10^4 per 100 mg
- Average per 100 mg ([1]; Run 4 NX1080424B, 0.5 mm beads, Table 4 cycle: pre-NO2 0.4% 10 min, 0.2%+0.2% NO2, humid air per Table 5, 10 min dwell): 1.8 × 10^3 per 100 mg
- Average per 100 mg [1, 4]: 4.0 × 10^4 per 100 mg
- CFU per 100 mg [1, 4]: 4.0 × 10^4 CFU per 100 mg and 3.2 × 10^4 CFU per 100 mg and 5.4 × 10^4 CFU per 100 mg and 3.5 × 10^5 CFU per 100 mg
- Average per 100 mg ([1]; Run 5 NX1080429A, 0.5 mm beads, Table 4 cycle, humid air per Table 5): 3.5 × 10^2 per 100 mg
- Average per 100 mg [1, 5]: 3.6 × 10^4 per 100 mg
- CFU per 100 mg [1, 5]: 3.5 × 10^4 CFU per 100 mg and 3.6 × 10^4 CFU per 100 mg
- Average per 100 mg ([1]; Run 6 NX1080429B, 0.5 mm beads, Table 4 cycle, humid air per Table 5): 1.1 × 10^2 per 100 mg
- Average per 100 mg [1, 6]: 1.9 × 10^4 per 100 mg
- CFU per 100 mg [1, 6]: 1.6 × 10^4 CFU per 100 mg and 1.8 × 10^4 CFU per 100 mg and 2.7 × 10^4 CFU per 100 mg
- Average per 100 mg ([1]; Run 7 NX1080429C, 0.5 mm beads, Table 4 cycle, humid air per Table 5): 1.3 × 10^2 per 100 mg
- Average per 100 mg [1, 7]: 2.3 × 10^4 per 100 mg
- CFU per 100 mg [1, 7]: 2.1 × 10^4 CFU per 100 mg and 2.0 × 10^4 CFU per 100 mg and 2.9 × 10^4 CFU per 100 mg and 2.3 × 10^4 CFU per 100 mg
- Average per 100 mg ([1]; Run 8 NX1080501B, 0.5 mm beads, one vial, Table 4 cycle, humid air and repeats per Table 5): 1.8 × 10^2 per 100 mg
- Average per 100 mg ([1]; Run 9 NX1080501C, 0.5 mm beads, one vial, Table 4 cycle, humid air and repeats per Table 5): 3.3 × 10^1 per 100 mg
- Average per 100 mg ([1]; Run 10 NX1080501D, 0.5 mm beads, one vial, Table 4 cycle, humid air and repeats per Table 5): 5.0 × 10^0 per 100 mg
- Average per 100 mg ([1]; Run 11 NX1080501E, 0.5 mm beads, one vial, Table 4 cycle, humid air and repeats per Table 5): 1.3 × 10^2 per 100 mg
- Average per 100 mg ([1]; Run 12 NX1080505A, 0.5 mm beads, one vial, Table 4 cycle, humid air and repeats per Table 5): 2.2 × 10^1 per 100 mg
- Average per 100 mg ([1]; Run 13 NX1080505B, 0.5 mm beads, one vial, Table 4 cycle, humid air and repeats per Table 5): 2.0 × 10^0 per 100 mg
- Average per 100 mg ([1]; Run 14 NX1080505C, 0.5 mm beads, one vial, Table 4 cycle, humid air and repeats per Table 5): 4.0 × 10^−1 per 100 mg
- Average per 100 mg ([1]; Run 15 NX1080505D, 0.5 mm beads, one vial, Table 4 cycle, humid air and repeats per Table 5): 8.0 × 10^0 per 100 mg
